What was measured:
[1] = Retention/recovery of [19F]DCFPyL on the HLB solvent exchange cartridge as a function of pH (load, wash, product samples); type: physicochemical
Description: The goal of this study was to characterize the impact of pH on the retention of [^18F]DCFPyL on the HLB solvent exchange cartridge. […] The pH of one solution was adjusted to 2 and a second to 4 by adding 1N HCl. A third solution was used without adjusting its native pH of 7.2. Using a BD syringe, 10 mL of each solution was spiked with [^19F]DCFPyL (50 μg) by adding 0.5 mL of a 100 μg/mL stock solution. Each spiked solution was loaded onto a HLB cartridge at a rate of approximately 2 mL/min. […] The eluent from each HLB cartridge was individually collected and identified as the “wash solution.” Each HLB cartridge was then individually eluted with 1 mL of ethanol, the samples collected and are identified as the “product sample.” The load solution and wash solution samples were analyzed using a drug product chemical impurity assay after a 1 to 10 mL dilution with saline, while the ethanolic product samples were analyzed following a 0.5 to 10 dilution with saline.
The goal of this study was to characterize the impact of pH on the retention of ^18F-DCFPyL on the HLB solvent exchange cartridge. […] The pH of one solution was adjusted to 2 and a second to 4 by adding 1N HCl. A third solution was used without adjusting its native pH of 7.2. At this pH the solution will be mainly sodium ascorbate. Using a BD syringe, 10 mL of each solution was spiked with ^19F-DCFPyL (50 μg) by adding 0.5 mL of a 100 μg/mL stock solution. Each spiked solution was loaded onto an HLB cartridge at a rate of approximately 2 mL/min and the solution collected after the HLB column is identified as the load solution. […] Each HLB cartridge was then individually eluted with 1 mL of ethanol, the solution collected after the HLB column is identified as the product sample. The load solution and wash solution samples were analyzed using the drug product chemical impurity assay after a 1 to 10 mL dilution with saline, while the ethanolic product samples were analyzed following a 0.5 to 10 mL dilution with saline.

[2] = HPLC/UV (264 nm) chemical impurity assay; ascorbic acid related impurity; type: physicochemical; details: development lot at 163.0 mCi/mL with ascorbic acid
Description: Analytical HPLC method was used. The method employs UV detection at 264 nm for chemical impurities, and an Eckert & Ziegler model B-FC-1000 gamma detector for radiochemical assays.
Since the peak has not been previously observed in preparations in the absence of ascorbic acid it is likely ascorbic acid related and was further investigated. A decayed sample from the lot produced was analyzed further and confirmed the presence of the peak, FIG. 35. […] The sample was assayed for chemical impurities at T=0, 4, 10 and 24 hours when held inverted at ambient conditions. […] The impurity only formed with radioactivity exposure but not when stored in light or dark at ambient conditions (see FIG. 37).

Compound: O=C(O)CC[C@H](NC(=O)N[C@@H](CCCCNC(=O)c1ccc([18F])nc1)C(=O)O)C(=O)O [Lot 18F-DCFPyL, 2-(3-{1-carboxy-5-[(6-[18F]fluoro-pyridine-3-carbonyl)-amino]-pentyl}ureido)-pentanedioic acid]
- retention of [18F]-DCFPyL by the HLB cartridge ([1]; pH 2): 98%
- retention of [18F]-DCFPyL by the HLB cartridge ([1]; pH 4): 81%
- chemical impurity at retention time approximately 4.6 minutes on the UV trace [2]: 0.9 µg/mL

Source: patent US20250019350A1, “SYNTHESIS OF THE PROSTATE SPECIFIC MEMBRANE ANTIGEN (PSMA) RADIOLABELED INHIBITOR [18F]DCFPYL” (Progenics Pharmaceuticals, Inc, priority 2023, published 2025)
